Reference: PubChem BioAssay AID278 (DTP/NCI, 2004)
Values joined by “and” are separate entries in the source; they are usually repeats but may differ in a detail not shown here. Equal entries are not always repeated. Results filed as inconclusive are left out.

Tested on: nude mice, A549 intrarenal xenograft, tumor weight change
Assay: NCI In Vivo Anticancer Drug Screen. Data for tumor model A549 Human Adenocarcinoma of Lung with characteristics of Type II Alveolar Epithelial cells (intrarenal inoculation) in NU/NU BALB/C (nude) mice
Conditions: endpoint: mean tumor weight change, schedule: Q04DX003 (ip), higher = larger tumour
Experimental: The antitumor activity of compounds was measured in mice bearing transplantable tumors. Survival or tumor size were measured and the results are expressed as the measurement made in the treated group (T) divided by the measurement made in the vehicle treated control group (C). The tumor model used in this assay is A549 Human Adenocarcinoma of Lung with characteristics of Type II Alveolar Epithelial cells (intrarenal inoculation) in NU/NU BALB/C (nude) mice

[1] = dose: 50.0 mg/kg/injection, vehicle: water
[2] = dose: 25.0 mg/kg/injection, vehicle: saline
[3] = dose: 50.0 mg/kg/injection, vehicle: saline
[4] = dose: 150.0 mg/kg/injection, vehicle: saline with Tween-80
[5] = dose: 300.0 mg/kg/injection, vehicle: saline with Tween-80
[6] = dose: 600.0 mg/kg/injection, vehicle: saline with Tween-80
[7] = dose: 100.0 mg/kg/injection, vehicle: water

C=CCSC(C)=O
T/C (dose: 62.5 mg/kg/injection, vehicle: suspension in saline): 83 % of control | T/C (dose: 125.0 mg/kg/injection, vehicle: suspension in saline): 53 % of control | T/C (dose: 250.0 mg/kg/injection, vehicle: suspension in saline): 90 % of control | T/C (dose: 500.0 mg/kg/injection, vehicle: suspension in saline): 71 % of control

O=NNc1ccc(Cl)cn1
T/C (dose: 5.0 mg/kg/injection, vehicle: water): 63 % of control | T/C (dose: 6.25 mg/kg/injection, vehicle: water): 113 % of control | T/C (dose: 10.0 mg/kg/injection, vehicle: water): 68 % of control | T/C (dose: 12.5 mg/kg/injection, vehicle: water): 62 % of control | T/C (dose: 20.0 mg/kg/injection, vehicle: water): 100 % of control | T/C (dose: 25.0 mg/kg/injection, vehicle: water): 61 % of control | T/C (dose: 40.0 mg/kg/injection, vehicle: water): 57 % of control | T/C [1]: 26 % of control

[CH3][Sn]([CH3])([Cl])[c]1cc[c]([Sn]([CH3])([CH3])[Cl])cc1
T/C (dose: 1.25 mg/kg/injection, vehicle: saline): 84 % of control | T/C (dose: 2.5 mg/kg/injection, vehicle: saline): 160 % of control | T/C (dose: 5.0 mg/kg/injection, vehicle: saline): 70 % of control

CS(=O)(=O)CS(=O)(=O)OCCF
T/C (dose: 6.25 mg/kg/injection, vehicle: saline): 40 % of control | T/C (dose: 12.5 mg/kg/injection, vehicle: saline): 62 % of control | T/C [2]: 50 % of control | T/C [3]: 50 % of control

COc1cc(C2=NCCc3cc4c(cc32)OCO4)cc(OC)c1OC
T/C (dose: 37.5 mg/kg/injection, vehicle: saline + alcohol): 73 % of control | T/C (dose: 75.0 mg/kg/injection, vehicle: saline + alcohol): 49 % of control | T/C (dose: 150.0 mg/kg/injection, vehicle: saline + alcohol): 31 % of control

c1cc2c(c(CC3CO3)c1CC1CO1)OCCOCCOCCOCCO2 (configuration not stated)
T/C (dose: 62.5 mg/kg/injection, vehicle: saline + alcohol): 74 % of control | T/C (dose: 125.0 mg/kg/injection, vehicle: saline + alcohol): 98 % of control | T/C (dose: 250.0 mg/kg/injection, vehicle: saline + alcohol): 64 % of control | T/C (dose: 375.0 mg/kg/injection, vehicle: saline + alcohol): 75 % of control

O=C(Nc1cc(Cl)ccc1C(=O)O)c1cccc(C[n+]2ccccc2)c1
T/C [4]: 161 % of control | T/C [5]: 86 % of control | T/C [6]: 20 % of control

O=C(NC(Cc1ccc(I)cc1)C(=O)O)c1ccc(Br)cc1 (configuration not stated)
T/C (dose: 37.5 mg/kg/injection, vehicle: other): 51 % of control | T/C (dose: 37.5 mg/kg/injection, vehicle: sodium bicarbonate): 78 % of control | T/C (dose: 75.0 mg/kg/injection, vehicle: other): 7 % of control | T/C (dose: 75.0 mg/kg/injection, vehicle: sodium bicarbonate): 103 % of control | T/C (dose: 150.0 mg/kg/injection, vehicle: other): 9 % of control | T/C (dose: 150.0 mg/kg/injection, vehicle: sodium bicarbonate): 83 % of control

Cc1ccc(C(=O)Nc2ccc(S(=O)(=O)O)c3cc(S(=O)(=O)O)cc(S(=O)(=O)O)c23)cc1NC(=O)c1cccc(NC(=O)Nc2cccc(C(=O)Nc3cc(C(=O)Nc4ccc(S(=O)(=O)O)c5cc(S(=O)(=O)O)cc(S(=O)(=O)O)c45)ccc3C)c2)c1
T/C [2]: 99 % of control | T/C [3]: 100 % of control | T/C (dose: 100.0 mg/kg/injection, vehicle: saline): 112 % of control

CCCCCCCCCCCCN1C(C)=CS/C1=C\C=C\c1scc(C)[n+]1CCCCCCCCCCCC
T/C (dose: 0.75 mg/kg/injection, vehicle: saline with Tween-80): 112 % of control | T/C (dose: 1.5 mg/kg/injection, vehicle: saline with Tween-80): 87 % of control | T/C (dose: 6.0 mg/kg/injection, vehicle: saline with Tween-80): 36 % of control

CCCC1CCC(=C2C(=O)CCC2=O)O1 (configuration not stated)
T/C (dose: 37.5 mg/kg/injection, vehicle: saline with Tween-80): 247 % of control | T/C (dose: 75.0 mg/kg/injection, vehicle: saline with Tween-80): 68 % of control | T/C [4]: 109 % of control | T/C [5]: 50 % of control

Cc1ccc2c(c1)n([O-])c1cc(Cl)ccc1[n+]2=O
T/C (dose: 35.0 mg/kg/injection, vehicle: saline with Tween-80): 102 % of control | T/C (dose: 70.0 mg/kg/injection, vehicle: saline with Tween-80): 65 % of control | T/C (dose: 140.0 mg/kg/injection, vehicle: saline with Tween-80): 108 % of control | T/C (dose: 280.0 mg/kg/injection, vehicle: saline with Tween-80): 94 % of control

O=C1C(=O)c2cccnc2-c2ncccc21
T/C (dose: 1.25 mg/kg/injection, vehicle: Klucel (hydroxypropylcellulose) (HPC)): 59 % of control | T/C (dose: 2.5 mg/kg/injection, vehicle: Klucel (hydroxypropylcellulose) (HPC)): 55 % of control | T/C (dose: 10.0 mg/kg/injection, vehicle: Klucel (hydroxypropylcellulose) (HPC)): 6 % of control

O=C1c2cccc(NCCCNCCO)c2C(=O)c2cccc(NCCCNCCO)c21
T/C (dose: 12.5 mg/kg/injection, vehicle: acid diluted with saline): 108 % of control | T/C (dose: 25.0 mg/kg/injection, vehicle: acid diluted with saline): 70 % of control

Cc1c(O)/c(=C\O)c2nc3c(=O)ccc(C(=O)NCCN(C)C)c3[nH]c2c1=O
T/C [1]: 120 % of control | T/C [7]: 48 % of control | T/C (dose: 120.0 mg/kg/injection, vehicle: water): 52 % of control and 75 % of control

CCCCOCN(COCCCC)C12CC3CC(CC(C3)C1)C2
T/C (dose: 100.0 mg/kg/injection, vehicle: saline with Tween-80): 123 % of control | T/C (dose: 400.0 mg/kg/injection, vehicle: saline with Tween-80): 203 % of control

CN(Cc1cnc2nc(N)nc(N)c2n1)c1ccc(C(=O)N[C@@H](CCC(=O)O)C(=O)O)cc1
T/C (dose: 27.0 mg/kg/injection, vehicle: sodium bicarbonate): 100 % of control

O=c1[nH]cnc2c1nnn2C1OC(CO)C(O)C1O (configuration not stated)
T/C (dose: 150.0 mg/kg/injection, vehicle: suspension in saline): 83 % of control | T/C (dose: 300.0 mg/kg/injection, vehicle: suspension in saline): 47 % of control | T/C (dose: 600.0 mg/kg/injection, vehicle: suspension in saline): 32 % of control | T/C (dose: 1200.0 mg/kg/injection, vehicle: suspension in saline): 38 % of control

C/C(=N\NC(=S)N1CC2CCC(CC2)C1)c1cccc(C)n1
T/C (dose: 12.5 mg/kg/injection, vehicle: saline with Tween-80): 114 % of control | T/C (dose: 25.0 mg/kg/injection, vehicle: saline with Tween-80): 81 % of control

c1nnc(NCNc2nncs2)s1
T/C (dose: 100.0 mg/kg/injection, vehicle: suspension in saline): 61 % of control | T/C (dose: 144.0 mg/kg/injection, vehicle: Klucel (hydroxypropylcellulose) (HPC)): 36 % of control | T/C (dose: 200.0 mg/kg/injection, vehicle: suspension in saline): 23 % of control | T/C (dose: 240.0 mg/kg/injection, vehicle: Klucel (hydroxypropylcellulose) (HPC)): 23 % of control | T/C (dose: 400.0 mg/kg/injection, vehicle: suspension in saline): 20 % of control

O=NNc1cccnc1
T/C [1]: 56 % of control and 75 % of control | T/C [7]: 80 % of control

Nc1n[nH]c2ccccc12
T/C [4]: 69 % of control | T/C [5]: 52 % of control | T/C [6]: 33 % of control

COc1cc2c[n+](C)c3c(c2cc1OC)Cc1cc2c(cc1-3)OCO2
T/C (dose: 18.75 mg/kg/injection, vehicle: saline with Tween-80): 39 % of control
